Experiments:
[1] = system: Escherichia coli MC4100 harboring the IMP4213; experiment: MIC, broth micro-dilution technique (CLSI); type: cell-based; settings: Table 1 protocol: serial 2-fold dilutions starting from 64 μg/ml; 35° C., 22 hours
Method in brief: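 Susceptibility is tested by broth micro-dilution per CLSI, using ten serial 2-fold dilutions beginning at 64 μg/ml or, in a modified version, 4 μg/mL. The E. coli MC4100 strain carries an imp allele raising outer-membrane permeability.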

[2] = system: Methicillin Resistant Staphylococcus aureus strain USA 300 (NRS384); experiment: MIC, broth micro-dilution technique (CLSI); type: cell-based; settings: Table 1 protocol: serial 2-fold dilutions starting from 64 μg/ml; 35° C., 22 hours
Method in brief: (§1)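 CLSI broth microdilution in cation-adjusted Mueller Hinton broth with 0.002% v/v Tween-80. Compounds were serially 2-fold diluted over 10 concentrations from 64 μg/ml, or from 4 μg/mL in a modified protocol; inoculum at final OD600 0.0005, incubated 35° C for 22 hours.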

MRSA COL (NRS100) = experiment: MIC, broth micro-dilution technique (CLSI); type: cell-based, Staphylococcus aureus; settings: Table 1 protocol: serial 2-fold dilutions starting from 64 μg/ml; 35° C., 22 hours
Method in brief: as §1

MRSA strain USA300 [3] = experiment: Checkerboard synergy assay (2D MIC) with imipenem; type: cell-based, Staphylococcus aureus; settings: many points of the isobologram (FIG. 1); synergy defined as sum of the FICs ≤0.5; 35° C., 22 hours
Experimental: 2D MIC assay or “checkerboard assays” are the most common method used to quantify synergistic or antagonistic interactions between two antibiotics with respect to potency (Hallander, H. O., et al., Antimicrob. Agents Chemother. 1982 22:743-752). In this assay in each axis of a 96-well plate contains a 2-fold dilution of a given agent, such that each well contains a unique combination of the agents being tested.
To create a checkerboard dilution scheme, imipenem was diluted in Mueller Hinton II Broth+0.002% Tween-80 to twice the final desired concentration, and six 2-fold serial dilutions were performed in the same media yielding seven imipenem concentrations. Dilutions of Compound 155 were prepared similarly except that ten dilutions were performed for a total of eleven concentrations. […]
MRSA strain USA300 was grown overnight at 35° C. on Mueller Hinton Agar plates, and colonies were suspended in Mueller Hinton II Broth+0.002% Tween-80 to a final density of 1*10^7 cfu/ml. […] The plate was incubated at 35° C. for 22 hours after which growth was determined via visual inspection. For each sub-MIC concentration of imipenem, the concentration of Compound 155 required to prevent visible growth was recorded, and the fractional inhibitor concentration (FIC) of each agent was calculated by dividing the concentration of each agent by MIC of the agent alone. […]

MRSA strain USA300 [4] = experiment: Time-kill assay; type: cell-based, Staphylococcus aureus; settings: 1 ug/mL imipenem plus 16 ug/mL Compound 155; initial density 1*10^7 cfu/mL; FIG. 2
Experimental: Time-kill experiments enable quantification of rate of bacterial growth or death in the presence of a fixed concentration of one or more antibiotics (Arhin. F., et. al., Current Protocols in Microbiology 17.1.1-17.1.22, February 2010). Time-kill experiments were performed in 96-well incubation plates using Mueller Hinton II Broth+0.002% Tween-80 as the growth media. Individual wells contained imipenem alone, Compound 155 alone, or a combination of both agents at various concentrations. MRSA strain USA300 was grown overnight at 35° C. on Mueller Hinton Agar plates, and colonies were suspended in Mueller Hinton II Broth+0.002% Tween-80 to a final density of 2*10^8 cfu/mL. To each well of the incubation plates, 5 uL of this suspension were added, resulting in an initial density of 1*10^7 cfu/mL. Plates were incubated at 35° C., and at various time points 30 ul samples were removed, mixed 1:1 with 25 mg/ml activated carbon, serially diluted in sterile phosphate buffered saline supplemented with 0.05% Tween 20, and spotted onto Mueller Hinton Agar plates to enable cfu quantification. Colonies were counted and the cfu/ml at each time point calculated by based on the dilution factor and volume spotted.

In the case of CCCCCCCCCCNCCC(=O)N[C@@H](CCCCN)C(=O)N(C)[C@@H]1C(=O)N[C@@H](C)C(=O)N[C@H](C(=O)N[C@@H](C)C(=O)N2CCC[C@H]2C(N)=O)Cc2ccc(O)c(c2)-c2cc1ccc2O.O=CO [Compound 155], the “MIC (μg/mL) E. coli” value [1] is reported as 64 µg/mL, the “MIC (μg/mL) S. aureus” value [2] is reported as 2.8 µg/mL and the “MIC (μg/mL) (COL)” value (MRSA COL (NRS100)) is reported as 1.3 µg/mL. The “sum of the FICs (fractional inhibitor concentration) of Compound 155 and imipenem” value (MRSA strain USA300 [3]) was less than 0.5 and the “time-kill: reduction of viable cells, combination compared with either agent alone” value (MRSA strain USA300 [4]) was “synergistic”.
